According to patent publication EP1948196B1, “USE OF TETRAORGANOSILICON COMPOUNDS” (Salama, Zoser B., priority 2005, dated 2007):
≈ marks a conversion by molar mass, not a printed value. Where two headings read alike, the source gives them in different places.

Experiments:
[1] = system: Panc1 Pankreaskrebszellen; experiment: subG1 apoptotic fraction, propidium iodide, flow cytometry; type: cell-based; settings: 50 µg/ml, 4 Tage
Procedure: (§1) Die Zellen (IEC6 mausartige Enterozyten; Panc1 Pankreaskrebszellen; Colo205 Kolonkarzinom) wurden mit 50 µg/ml Silanen inkubiert und nach 4-tägiger Aussetzung auf DNA eingefärbt (Propidiumiodid). Die SubG1 Zellteilung wurde mittels Durchflusscytometrie bestimmt.

[2] = system: IEC6 mausartige Enterozyten; experiment: as above; type: cell-based; settings: 50 µg/ml, 4 Tage
Procedure: as §1

[3] = system: Colo205 Kolonkarzinom; experiment: as above; type: cell-based; settings: 50 µg/ml, 4 Tage
Procedure: as §1

[4] = system: CRO2B - karzinoid; experiment: MTT assay / EZ4U test, 4 days; type: cell-based; settings: for IC50: read-out: IC50 CR02B
Procedure: (§2) Die Silane 1, 5, 9, 10, 11, 13, 15, 16 wurden in Ethanol gelöst und in MTT Assays in einer anfänglichen Konzentration von 200 µg/ml (5 Lösungsschritte 200 - 12.5 µg/ml) verwendet. Die Platten wurde für eine Dauer.von 4 Tagen inkubiert und die Entwicklungsfähigkeit mithilfe des EZ4U Test bestimmt. Die IC50 Werte wurden ausgehend von Dosierungs-Reaktions-Linien berechnet Zelllinien: Colo 205 and HT29 - Kolonkarzinom; BxPC3 and MIAPaCa2 - Pankreaskrebs; CRO2B - karzinoid, A431 Epidermalkarzinom; normale Zellen: WI38 - humane embryonale Fibroblasten; NIH3T3 - mausartige Fibroblasten; IEC6 - mausartige Enterozyten.

[5] = system: MIAPaCa2 - Pankreaskrebs; experiment: MTT assay / EZ4U test, 4 days; type: cell-based; settings: for IC50: Homo sapiens
Procedure: as §2

[6] = system: WI38 - humane embryonale Fibroblasten; experiment: MTT assay / EZ4U test, 4 days; type: cell-based; settings: for IC50: Homo sapiens
Procedure: as §2

[7] = system: Colo 205 - Kolonkarzinom; experiment: MTT assay / EZ4U test, 4 days; type: cell-based; settings: for IC50: Homo sapiens
Procedure: as §2

[8] = system: A431 Epidermalkarzinom; experiment: MTT assay / EZ4U test, 4 days; type: cell-based; settings: for IC50: Homo sapiens
Procedure: as §2

[9] = system: NIH3T3 - mausartige Fibroblasten; experiment: MTT assay / EZ4U test, 4 days; type: cell-based; settings: for IC50: Mus musculus
Procedure: as §2

[10] = system: IEC6 - mausartige Enterozyten; experiment: MTT assay / EZ4U test, 4 days; type: cell-based; settings: for IC50: Rattus norvegicus
Procedure: as §2

[11] = system: BxPC3 - Pankreaskrebs; experiment: MTT assay / EZ4U test, 4 days; type: cell-based; settings: for IC50: Homo sapiens
Procedure: as §2

[12] = system: HT29 - Kolonkarzinom; experiment: MTT assay / EZ4U test, 4 days; type: cell-based; settings: for IC50: Homo sapiens
Procedure: as §2

[13] = system: Normale Zellen; experiment: Mean IC50 over all normal cell lines; type: cell-based; settings: for IC50: read-out: IC50 Normale Zellen (Durchschnitt ± SD)
Procedure: as §2
(§3) Mittelwerte-IC50 für alle Krebs- oder normalen Zelllinien: […]

[14] = system: Krebszellen; experiment: Mean IC50 over all cancer cell lines; type: cell-based; settings: for IC50: read-out: IC50 Krebszellen (Durchschnitt ± SD)
Procedure: as §2, §3

[15] = system: colo205 (Kofon-Karzinom); experiment: MTT test, triplicate, two-fold dilutions; type: cell-based; settings: for IC50: Homo sapiens
Procedure: (§4) Die Silan wurden in Ethanol aufgelöst und in Zellkulturmedien in Konzentrationen von bis zu 500 µg/ml resuspendiert. Es wurden MTT Tests in dreifacher Ausführung durchgeführt, für welche doppelte Lösungen (7 Schritte) und colo205 (Kofon-Karzinom), BxPC3 (pankreatisches Adenokarzinom) sowie T47D (Brustkrebs) benutzt wurden.

[16] = system: BxPC3 (pankreatisches Adenokarzinom); experiment: MTT test, triplicate, two-fold dilutions; type: cell-based; settings: for IC50: Homo sapiens
Procedure: as §4

[17] = system: T47D (Brustkrebs); experiment: MTT test, triplicate, two-fold dilutions; type: cell-based; settings: for IC50: Homo sapiens, T47D, read-out: IC50 T47D
Procedure: as §4

[18] = system: Kälber-Aortenendothelzellinie BKEz-7; experiment: tissue or blood; type: cell-based; settings: for IC50: suspensions, 48 Stunden bei 37°C
Excerpt: Prüfung auf zytotoxisches Potential an Kälber-Aortenendothelzellinie BKEz-7
Als Marker für eine zytotoxische Wirkung wird bei Zellen der charakterisierten Kälber-Aortenendothelzellinie BKEz-7 die Hemmkonzentration ermittelt, bei der eine 50%-ige Hemmung der Zellproliferation erfolgt (im Vergleich zu Kontrollkulturen ohne Zusatz eines Zellinhibitors). Die resultierende Reduzierung der Zellzahl um 50% wird als IC 50 ausgedrückt. Die getesteten Silanverbindungen wurden als Suspensionen auf die Kulturen gegeben und 48 Stunden bei 37°C inkubiert. Zusätzlich erfolgten morphologische Kontrollen und Vitalitätsbestimmungen mittels dem Neutralrot-Test. Mit Ausnahme des Di(dodecanoyloxy)dimethylsilans standen alle Ergebnisse der morphologischen Untersuchungen in guter Übereinstimmung. […]

[19] = system: Maus; experiment: Pharmacological observation in the mouse (central, vegetative and toxic effects, acute toxicity); type: in vivo
Excerpt: Pharmakologische Untersuchungen an der Maus
Die Verbindungen wurden an der Maus auf zentrale, vegetative und toxische Effekte geprüft. Durch systemische Einzelbeobachtungen sind neben der akuten Toxizität (orienberende letale Dosis, oLD) zentrale und vegetative Wirkungen der Testsubstanzen, insbesondere Effekte auf die Motorik und das Reaktionsvermögen, die Haut- und Rektaltemperatur sowie auf die Pupillenmotorik erfasst worden. Die getesteten Dosierungen betrugen 5 •10^-4, 1 • 10^-3 und 5 • 10^-3 mol/kg Körpergewicht Letale Wirkungen konnten bei keiner der Verbindungen beobachtet werden. Die oLD lag für Di(tetradecanoyloxy)dimethylsilan und Di(octadecanoyloxy)dimethylsilan unter 1 • 10^-3 mol/kg Körpergewicht für alle übrigen Verbindungen unter 5 • 10^-3 mollkg Körpergewicht.

[20] = system: Basalzellkarzinome; experiment: Effect on basal cell carcinomas
[21] = MIA PaCa-2, 200 - 12.5 µg/ml, 4 Tage, read-out: IC50 MlAPaCa2
[22] = WI-38, 200 - 12.5 µg/ml, 4 Tage, read-out: IC50 WI38
[23] = COLO 205, 200 - 12.5 µg/ml, 4 Tage, read-out: IC50 Colo205
[24] = A-431, 200 - 12.5 µg/ml, 4 Tage, read-out: IC50 A431
[25] = NIH3T3, 200 - 12.5 µg/ml, 4 Tage, read-out: IC50 NIH3T3
[26] = IEC-6, 200 - 12.5 µg/ml, 4 Tage, read-out: IC50 IEC6
[27] = BXPC-3, 200 - 12.5 µg/ml, 4 Tage, read-out: IC50 BxPC3
[28] = HT-29, 200 - 12.5 µg/ml, 4 Tage, read-out: IC50 HT29
[29] = COLO 205, up to 500 µg/ml, read-out: IC50 Colo205
[30] = BXPC-3, up to 500 µg/ml, read-out: IC50 BxPC3
[31] = COLO 205, read-out: IC50 Colo205

Row | Compound | subG1 apoptotische Zellteilung Panc1 [1] | subG1 apoptotische Zellteilung IEC6 [2] | subG1 apoptotische Zellteilung Colo205 [3] | Bedenkliche Toxizität [18] | IC50 [18] | IC50 ([4]; 200 - 12.5 µg/ml, 4 Tage) | IC50 [5, 21] | IC50 [6, 22] | IC50 [7, 23] | IC50 [8, 24] | IC50 [9, 25] | IC50 [10, 26] | IC50 [11, 27] | IC50 [12, 28] | zentrale, vegetative und toxische Effekte (Verhaltensänderungen) ([19]; 1•10^-3 mol/kg) | zentrale, vegetative und toxische Effekte (Verhaltensänderungen) ([19]; 5•10^-3 mol/kg) | zentrale, vegetative und toxische Effekte (Verhaltensänderungen) ([19]; 5•10^-4 mol/kg) | IC50 ([13]; mean over normal cell lines) | Wirkung auf Basalzellkarzinome [20] | IC50 ([14]; mean over cancer cell lines) | further results
1 | CCCCCCCCCC(=O)O[Si](CC)(CC)OC(=O)CCCCCCCCC [Si9, Didecanoyloxy - diethylslan] | 42,8 ± 1,6 | 0,9 ± 0.0 | 32,1 ± 1,41 |  |  |  |  |  |  |  |  |  |  |  |  |  |  |  |  |  | IC50 CR02B ([4]; 200 - 12.5 µg/ml, 4 Tage): 31.5 µg/mL (≈ 73.5 µM); IC50 MlAPaCa2 ([5]; 200 - 12.5 µg/ml, 4 Tage): 37.5 µg/mL (≈ 87.5 µM); IC50 WI38 ([6]; 200 - 12.5 µg/ml, 4 Tage): 37.0 µg/mL (≈ 86.3 µM); IC50 Colo205 ([7]; 200 - 12.5 µg/ml, 4 Tage): 40.6 µg/mL (≈ 94.7 µM); IC50 A431 ([8]; 200 - 12.5 µg/ml, 4 Tage): 29.4 µg/mL (≈ 68.6 µM); IC50 NIH3T3 ([9]; 200 - 12.5 µg/ml, 4 Tage): 34.4 µg/mL (≈ 80.2 µM); IC50 IEC6 ([10]; 200 - 12.5 µg/ml, 4 Tage): 17.2 µg/mL (≈ 40.1 µM); IC50 BxPC3 ([11]; 200 - 12.5 µg/ml, 4 Tage): 40.0 µg/mL (≈ 93.3 µM); IC50 HT29 ([12]; 200 - 12.5 µg/ml, 4 Tage): 41.5 µg/mL (≈ 96.8 µM); IC50 Normale Zellen (Durchschnitt ± SD) ([13]; mean over normal cell lines): 29,5 ± 10,8 µg/ml; IC50 Krebszellen (Durchschnitt ± SD) ([14]; mean over cancer cell lines): 35,6 ± 6,0 µg/ml; IC50 Colo205 ([15]; up to 500 µg/ml): 60 µg/mL (≈ 140 µM); IC50 BxPC3 ([16]; up to 500 µg/ml): 15 µg/mL (≈ 35 µM); IC50 T47D ([17]; up to 500 µg/ml): 40 µg/mL (≈ 93.3 µM)
2 | CCCCCCCCCCCCCCCCCC(=O)O[Si](OC(=O)CCCCCCCCCCCCCCCCC)(c1ccccc1)c1ccccc1 [Si10, Di (octadecanoyloxy) diphenylsilan] | 60,7 ± 0,2 | 13,4 ± 0,42 | 43,9 ± 1,41 | - | 84 µM | 18.5 µg/mL (≈ 24.7 µM) | 37 µg/mL (≈ 49.4 µM) | 21.8 µg/mL (≈ 29.1 µM) | 30.6 µg/mL (≈ 40.8 µM) | 21.9 µg/mL (≈ 29.2 µM) | 22.2 µg/mL (≈ 29.6 µM) | 17.2 µg/mL (≈ 23 µM) | 20 µg/mL (≈ 26.7 µM) | 27.5 µg/mL (≈ 36.7 µM) | schwache Ataxie, Hyperaktivität und Piloerektion | schwache Ataxie | keine Verhaltensänderungen | 20.4 µg/mL (≈ 27.2 µM) | zeigen eine Wirkung | 21.9 µg/mL (≈ 29.2 µM) | IC50 [15, 29]: 60 µg/mL (≈ 80.1 µM); IC50 [16, 30]: 15 µg/mL (≈ 20 µM); IC50 ([17]; up to 500 µg/ml): 15 µg/mL (≈ 20 µM)
3 | CCCCCCCCCCCCCCCCCC(=O)O[Si](CC)(CC)OC(=O)CCCCCCCCCCCCCCCCC [Si13, Di (octadecanoyloxy) diethylsilan] | 36,7 ± 0,5 |  | 4,8 ± 0,49 |  |  |  |  |  |  |  |  |  |  |  |  |  |  |  |  |  | IC50 [4]: 17.8 µg/mL (≈ 27.3 µM); IC50 ([5]; MIA PaCa-2, read-out: IC50 MlAPaCa2): 110 µg/mL (≈ 168 µM); IC50 ([6]; WI-38, read-out: IC50 WI38): 16.5 µg/mL (≈ 25.3 µM); IC50 [7, 31]: 47.5 µg/mL (≈ 72.7 µM); IC50 ([8]; A-431, read-out: IC50 A431): 15.9 µg/mL (≈ 24.3 µM); IC50 ([9]; NIH3T3, read-out: IC50 NIH3T3): 20.6 µg/mL (≈ 31.5 µM); IC50 ([10]; IEC-6, read-out: IC50 IEC6): 17 µg/mL (≈ 26 µM); IC50 ([11]; BXPC-3, read-out: IC50 BxPC3): 17.5 µg/mL (≈ 26.8 µM); IC50 ([12]; HT-29, read-out: IC50 HT29): 18.3 µg/mL (≈ 28 µM); IC50 [13]: 18 µg/mL (≈ 27.6 µM); IC50 [14]: 17.3 µg/mL (≈ 26.5 µM); IC50 [15, 31]: 125 µg/mL (≈ 191 µM); IC50 ([16]; BXPC-3, read-out: IC50 BxPC3): 10 µg/mL (≈ 15.3 µM); IC50 [17]: 8 µg/mL (≈ 12.2 µM)
4 | CCCCCCCCCCCCCC(=O)O[Si](OC(=O)CCCCCCCCCCCCC)(c1ccccc1)c1ccccc1 [Si15, Di (tetradecanoyloxy) diphenylsilan] | 48,6 ± 0,6 | 2,9 ± 0,42 | 37,6 ± 0,21 | - | 46 µM | 12.5 µg/mL (≈ 19.6 µM) | 37 µg/mL (≈ 58.1 µM) | 35 µg/mL (≈ 54.9 µM) | 30 µg/mL (≈ 47.1 µM) | 34.5 µg/mL (≈ 54.2 µM) | 29.4 µg/mL (≈ 46.2 µM) | 19.1 µg/mL (≈ 30 µM) | 33.8 µg/mL (≈ 53.1 µM) | 39.4 µg/mL (≈ 61.8 µM) | Ataxie, Hyper-aktivität | schwache Ataxie, Piloerektion | keine Verhaltensänderungen | 27.8 µg/mL (≈ 43.6 µM) | zeigen eine Wirkung | 30 µg/mL (≈ 47.1 µM) | IC50 [15, 29]: 62 µg/mL (≈ 97.3 µM); IC50 [16, 30]: 15 µg/mL (≈ 23.5 µM); IC50 ([17]; up to 500 µg/ml): 15 µg/mL (≈ 23.5 µM)
